# Laboratory results taken from the SangsterLogP compilation.
# Test: method code SF-AS, from PMID: 4559156
# Conditions: pH 7.4
row,SMILES,logD
1,O=[N+]([O-])c1cnc(N=C2NCCO2)s1,0.57
2,O=[N+]([O-])c1cnc(/N=C2/OCCN2CCO)s1,0.43
3,CC1(C)NC(=Nc2ncc([N+](=O)[O-])s2)OC1(C)C,2.4
4,CN1CCN=C1Nc1ncc([N+](=O)[O-])s1,1.8
5,O=[N+]([O-])c1cnc(N=C2NCC(O)CN2)s1 (stereo not given),0.74
6,O=[N+]([O-])c1cnc(/N=C2/SCCN2CCO)s1,1.28
7,CC1CNC(=Nc2ncc([N+](=O)[O-])s2)N1C (stereo not given),2.02
8,O=[N+]([O-])c1cnc(NC2=NCCN2)s1,1.38
9,CN1CCN(C)C1=Nc1ncc([N+](=O)[O-])s1,0.92
10,O=[N+]([O-])c1cnc(N=C2NCCN2CCO)s1,1.23
11,CC1N=C(Nc2ncc([N+](=O)[O-])s2)OC1(C)C (stereo not given),1.88
12,CC1CN(C)C(=Nc2ncc([N+](=O)[O-])s2)N1 (stereo not given),1.95
13,CCN1CCNC1=Nc1ncc([N+](=O)[O-])s1,2.28
14,CC(=O)OCCN1CCS/C1=N/c1ncc([N+](=O)[O-])s1,1.88
15,CN1CC(O)CN(C)C1=Nc1ncc([N+](=O)[O-])s1 (stereo not given),0.16
